Test results published in US20210061800A1, “COMPOUNDS FOR TREATING EYE DISEASES AND METHODS THEREOF” (Agency for Science, Technology and Research, priority 2017, published 2021).

Legend:
PDGFR-WT [1] = biological target: T1, PDGFR-WT (Homo sapiens, UniProt P09619); test: PDGFRβ signaling in HEK293 cells (Western blot: PDGFRβ autophosphorylation, Shp2 phosphorylation); assay type: cell-based; parameters: expressed in transfected cells; host or cells: HEK293; settings: 20 ng/ml PDGF
Method: FIG. 5 illustrates a Western-blot analysis result of Ex 1 (a compound of the present invention), in relation to inhibit PDGFRβ signaling in HEK293 cells expressing PDGFRβ.
Human Embryonic kidney cells (HEK293) were constructed to express human PDGFRWT under the control of constitutive CMV promoter. Cells were grown in the presence of 20 ng/ml PDGF (the ligand for the PDGFRβ) to activate the PDGFRβ. Different concentration of Ex 1 were added to study its effect on the PDGFRβ-mediated signaling. Autophosphorylation of PDGFRβ and Shp2 phosphorylation were monitored by Western blotting were used as the markers for PDGFRβ signaling. B Actin was used as an internal control.
Target sequence in this assay (P09619 33-1106): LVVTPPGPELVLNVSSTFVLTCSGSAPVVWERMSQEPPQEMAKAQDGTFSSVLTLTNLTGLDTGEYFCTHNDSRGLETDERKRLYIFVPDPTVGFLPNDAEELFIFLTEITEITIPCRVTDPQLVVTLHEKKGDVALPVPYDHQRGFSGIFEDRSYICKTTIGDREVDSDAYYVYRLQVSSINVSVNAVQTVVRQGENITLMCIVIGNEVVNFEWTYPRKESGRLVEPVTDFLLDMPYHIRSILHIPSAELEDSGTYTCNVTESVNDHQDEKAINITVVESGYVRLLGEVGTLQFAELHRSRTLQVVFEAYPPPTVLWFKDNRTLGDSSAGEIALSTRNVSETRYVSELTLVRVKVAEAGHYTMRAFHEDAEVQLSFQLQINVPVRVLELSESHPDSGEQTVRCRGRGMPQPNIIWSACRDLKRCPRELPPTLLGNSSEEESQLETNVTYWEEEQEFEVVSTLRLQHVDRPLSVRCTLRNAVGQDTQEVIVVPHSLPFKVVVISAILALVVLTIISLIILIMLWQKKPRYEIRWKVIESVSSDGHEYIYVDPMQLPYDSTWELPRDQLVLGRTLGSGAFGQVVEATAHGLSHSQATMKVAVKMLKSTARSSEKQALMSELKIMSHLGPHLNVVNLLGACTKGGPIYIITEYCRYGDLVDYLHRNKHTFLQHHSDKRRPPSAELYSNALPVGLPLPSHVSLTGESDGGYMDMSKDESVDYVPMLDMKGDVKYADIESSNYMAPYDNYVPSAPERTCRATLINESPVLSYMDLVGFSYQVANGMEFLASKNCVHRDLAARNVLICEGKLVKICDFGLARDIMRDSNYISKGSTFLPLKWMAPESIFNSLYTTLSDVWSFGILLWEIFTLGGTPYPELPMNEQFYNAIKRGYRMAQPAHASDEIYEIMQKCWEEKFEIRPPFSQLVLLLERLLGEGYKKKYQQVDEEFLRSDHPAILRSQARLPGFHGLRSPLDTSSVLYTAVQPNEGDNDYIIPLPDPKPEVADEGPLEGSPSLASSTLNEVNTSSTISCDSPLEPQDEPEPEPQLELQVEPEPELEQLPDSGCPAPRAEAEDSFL

human PDGFRβWT = test: Humanized yeast screen: prevention of PDGFR-induced death of yeast cells; settings: 10 μM; compared to DMSO or Gleevec
Method: A humanized yeast screen was performed. Yeast cells carrying stably integrated GAL-PDGFRβ were first grown in YEP+raff medium and then seeded into fresh YEP+raff+GAL medium to induce expression of human PDGFRβWT.

PDGFR-WT [2] = biological target: T1, PDGFR-WT; test: PDGFRβ-dependent growth of Ba/F3 cells; assay type: cell-based; settings: inhibition of PDGFRβ-dependent growth of Ba/F3 cells; read-out: effective concentration-50 (EC50) against PDGFR-WT
Method: Based on in silico modelling and simulation, different derivatives of the diphenyl oxyacetamide based compounds (formula (I)) were synthesized. The potency of the compounds were measured in terms of its ability to inhibit the PDGFRβ-dependent growth of Ba/F3 cells.
FIG. 6 illustrates work flow for synthesis of G6 derivatives Effective Concentration-50 (EC50) as determined using Ba/F3 cell.
Target sequence in this assay (P09619 554-1106 limits assumed, change not shown): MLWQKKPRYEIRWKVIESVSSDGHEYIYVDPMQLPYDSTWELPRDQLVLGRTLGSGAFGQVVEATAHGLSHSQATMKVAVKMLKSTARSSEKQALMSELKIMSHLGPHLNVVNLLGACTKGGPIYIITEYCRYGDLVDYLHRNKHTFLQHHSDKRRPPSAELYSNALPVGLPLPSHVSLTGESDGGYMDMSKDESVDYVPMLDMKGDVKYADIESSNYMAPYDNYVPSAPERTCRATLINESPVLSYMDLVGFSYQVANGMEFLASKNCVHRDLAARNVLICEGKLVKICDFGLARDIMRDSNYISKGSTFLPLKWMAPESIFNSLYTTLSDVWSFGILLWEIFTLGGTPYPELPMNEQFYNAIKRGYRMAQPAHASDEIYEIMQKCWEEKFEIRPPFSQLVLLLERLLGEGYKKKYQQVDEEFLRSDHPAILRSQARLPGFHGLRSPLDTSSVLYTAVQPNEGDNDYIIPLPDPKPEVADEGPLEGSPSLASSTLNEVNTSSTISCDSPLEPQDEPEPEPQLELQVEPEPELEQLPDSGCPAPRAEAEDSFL

human PDGFRβ = biological target: T2, human PDGFRβ (Homo sapiens, UniProt P09619); test: PDGFRβ signaling in Ba/F3 cells (Western blot); assay type: cell-based; settings: BaF3 cells expressing PDGFRβ, PDGF-induced
T2 construct: expressed in transfected cells; host or cells: Ba/F3
T2 sequence (P09619 33-1106): as the sequence (P09619 33-1106) above
Method: FIG. 7 illustrates a Western-blot analysis result of Ex 2 and Ex 3 (compounds of the present invention) to inhibit PDGFRβ signaling in BaF3 cells expressing PDGFRβ.
Ba/F3 cells were constructed to express human PDGFRβ under the control of CMV promoter. The PDGFRβ signaling was induced by addition of the ligand PDGF. The effect of […] and Ex 3 was added to the cell cultures at different concentrations to determine their efficacy to inhibit the PDGFRβ signaling as reflected by the inhibition of PDGFRβ autophosphorylation and the phosphorylation of Shp2, a downstream effector of the PDGFRβ signal pathway.
FIG. 7 illustrates a Western-blot analysis result, illustrating the efficacy of compounds of the present invention to inhibit PDGFRβ signaling in BaF3 cells expressing PDGFRβ.

[3] = tested on: Choroid membrane preparations; test: Ex vivo organoid model of angiogenesis (choroid membrane preparations in Matrigel); assay type: cell-based, mice; settings: mouse choroid in Matrigel
Method: Choroid membrane preparations isolated from young mice were cultured in Matrigel. Matrigel containing these preparations were layered with growth medium containing various concentrations of Ex 2 and Ex 3. The ‘blood vessel’ growth was monitored and quantified using a specialized image analysis software.
FIG. 10 illustrates the efficacy of the compounds of the present invention in an ex vivo organoid model of angiogenesis. Compounds of the present invention show anti-angiogenesis in organoid model.

[4] = tested on: Choroid Neo-Vascularization; test: Laser CNV mouse model for wet-AMD; assay type: in vivo; settings: injection into one eye, imaged for two weeks
Method: In vivo testing of Ex 3 in CNV (Choroid Neo-Vascularization)-laser mouse model was performed. Eyes of young mice were treated with laser to create choroid damage which results in the leakage of blood vessels (seen as light areas of FIG. 11). In each mouse, one eye was injected with a predetermined amount of Ex 3 while the other eye remained untreated to serve as ‘treatment(−)’ control. Mouse eyes were imaged intermittently for two weeks. The efficacy of the compound Ex 3 is indicated by its ability to prevent the leakage of the blood vessels (reduction or disappearance of the bright green areas).
FIG. 11 illustrates the efficacy of a compound of the present invention in Laser CNV mouse model for wet-AMD.

| SMILES | inhibition of PDGFRWT-mediated signaling (PDGFR-WT [1]) | cell growth (OD reading) of humanized yeast expressing PDGFRβ (human PDGFRβWT) | EC50 (PDGFR-WT [2]) | activity against PDGFRβ-WT signaling (human PDGFRβ) | anti-angiogenesis efficacy ('blood vessel' growth) [3] | efficacy in preventing leakage of blood vessels [4] |
| --- | --- | --- | --- | --- | --- | --- |
| Cc1ccc(NC(=O)COc2ccc(-n3cnnn3)cc2)cc1C [Ex 1, N-(3,4-dimethylphenyl)-2-[4-(tetrazol-1-yl)phenoxy]acetamide] | efficiently inhibits the PDGFRWT-mediated signaling | allows cell-growth more efficiently compared to DMSO or Gleevec | – | – | – | – |
| Cc1ccc(NC(=O)COc2ccc(-c3cnc4ccccn34)cc2)cc1C [Ex 2, N-(3,4-dimethylphenyl)-2-[4-imidazo[1,2-a]pyridin-3-ylphenoxy]acetamide] | – | – | 10 nM | show activities against PDGFRβ-WT | better anti-angiogenesis efficacy then Ex 3 | – |
| Cc1ccc(NC(=O)COc2ccc(-c3cnc4ccccn34)cc2)cc1C(F)(F)F [Ex 3, N-[4-methyl-3-(trifluoromethyl)phenyl]-2-[4-imidazo[1,2-a]pyridin-3-ylphenoxy]acetamide] | – | – | 10 nM | show activities against PDGFRβ-WT | – | efficacy |
